Test: Henry solubility constant Hcp at 298.15 K (mol/(m3 Pa))
Settings: reference: Buttery et al. (1969)

SMILES	Henry solubility constant Hcp
CCCC(C)=O [2-pentanone]	0.16
CCCCCCCCCC(C)=O [2-undecanone]	0.016
CCCCCCCC(C)=O [2-nonanone]	0.027
CC(C)=O [propanone]	0.25
CCCCCCCCO [1-octanol]	0.4
CCCCCC(C)=O [2-heptanone]	0.068
CCCCCCC(C)=O [2-octanone]	0.052
CCCCCCO [1-hexanol]	0.58

Continued, values first:

Henry solubility constant Hcp	SMILES
0.019	CCCCCCCC=O [octanal]
0.057	CCC(=O)OC [methyl propanoate]
0.086	COC(C)=O [methyl ethanoate]
0.027	CCCCCC(=O)OC [methyl hexanoate]
0.067	CCCCC=O [pentanal]
0.037	CCCCCCC=O [heptanal]
0.013	CCCCCCCCC=O [nonanal]
0.048	CCCC(=O)OC [methyl butanoate]
0.031	CCCCC(=O)OC [methyl pentanoate]
0.013	CCCCCCCC(=O)OC [methyl octanoate]
0.086	CCCC=O [butanal]
